Assay results from patent US20230017045A1, “PYRIDINE AND PYRIMIDINE CARBOXYLATE HERBICIDES AND METHODS OF USE THEREOF” (Dow AgroSciences LLC, priority 2017, published 2023).
Read-outs that look alike come from different tables or passages of the source.

Test system: test plant species
Assay: Post-emergent herbicidal activity test (greenhouse, foliar spray, visual growth reduction)
Assay type: in vivo
Conditions: post-emergence, 336 h, 140 g ai/ha
How it was run: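 Seedlings were raised 7-21 d in a greenhouse under a 15 h photoperiod until the first or second true leaf. Each compound, dissolved in acetone:DMSO 97:3 and diluted into a surfactant-containing spray mixture, was then applied at 187 L/ha. Plants were subirrigated, and growth reduction was scored visually at 14 d.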

[1] = ECHCG: barnyardgrass (Echinochloa crus-galli), 14 days after application, read-out: Visual Growth Reduction (%) 14 Days After Application, ECHCG
[2] = IPOHE: ivy-leaf morning glory (Ipomoea hederacea), 14 days after application, read-out: Visual Growth Reduction (%) 14 Days After Application, IPOHE
[3] = KCHSC: kochia (Bassia scoparia), 14 days after application, read-out: Visual Growth Reduction (%) 14 Days After Application, KCHSC
[4] = ORYSA: rice (Oryza sativa), 14 days after application, read-out: Visual Growth Reduction (%) 14 Days After Application, ORYSA
[5] = SETFA: giant foxtail (Setaria faberi), 14 days after application, read-out: Visual Growth Reduction (%) 14 Days After Application, SETFA
[6] = SORVU: grain sorghum (Sorghum vulgare), 14 days after application, read-out: Visual Growth Reduction (%) 14 Days After Application, SORVU
[7] = STEME: common chickweed (Stellaria media), 14 days after application, read-out: Visual Growth Reduction (%) 14 Days After Application, STEME
[8] = TRZAS: wheat, spring (Triticum aestivum), 14 days after application, read-out: Visual Growth Reduction (%) 14 Days After Application, TRZAS
[9] = blackgrass (Alopecurus myosuroides), 14 Days After Application, read-out: Visual Growth Reduction (%) ALOMY
[10] = crabgrass (Digitaria sanguinalis), 14 Days After Application, read-out: Visual Growth Reduction (%) DIGSA
[11] = lambsquarters (Chenopodium album), 14 Days After Application, read-out: Visual Growth Reduction (%) CHEAL
[12] = redroot pigweed (Amaranthus retroflexus), 14 Days After Application, read-out: Visual Growth Reduction (%) AMARE
[13] = wild oat (Avena fatua), 14 Days After Application, read-out: Visual Growth Reduction (%) AVEFA
[14] = yellow nutsedge (Cyperus esculentus), 14 Days After Application, read-out: Visual Growth Reduction (%) CYPES

SMILES | pest or weed control at 140 g/ha [1] [%] | pest or weed control at 140 g/ha [2] [%] | pest or weed control at 140 g/ha [3] [%] | pest or weed control at 140 g/ha [4] [%] | pest or weed control at 140 g/ha [5] [%] | pest or weed control at 140 g/ha [6] [%] | pest or weed control at 140 g/ha [7] [%] | pest or weed control at 140 g/ha [8] [%] | pest or weed control at 140 g/ha [9] [%] | pest or weed control at 140 g/ha [10] [%] | pest or weed control at 140 g/ha [11] [%] | pest or weed control at 140 g/ha [12] [%] | pest or weed control at 140 g/ha [13] [%] | pest or weed control at 140 g/ha [14] [%] | pest or weed control at 140 g/ha (canada thistle (Cirsium arvense), 14 Days After Application, read-out: Visual Growth Reduction (%) CIRAR) [%]
COC(=O)c1nc(-c2cc3c(cc2OC)OC(F)(F)O3)c(F)cc1Cl [F333, Methyl 3-chloro-6-(2,2-difluoro-6-methoxybenzo[d][1,3]dioxol-5-yl)-5-fluoropicolinate] | 30 to 44 | 95 to 100 | 30 to 44 | 0 to 29 | 30 to 44 | 85 to 94 | 0 to 29 | 45 to 59 | 0 to 29 | 60 to 74 | 0 to 29 | 30 to 44 | 0 to 29 | 0 to 29 | 
O=C(O)c1nc(-c2cc3c(cc2F)OC(F)(F)O3)c(F)cc1Cl [F334, 3-Chloro-5-fluoro-6-(2,2,6-trifluorobenzo[d][1,3]dioxol-5-yl)picolinic acid] | 75 to 84 | 95 to 100 | 60 to 74 | 45 to 59 | 75 to 84 | 95 to 100 | 0 to 29 | 75 to 84 | 75 to 84 | 95 to 100 | 75 to 84 | 75 to 84 | 60 to 74 | 60 to 74 | 
COC(=O)c1nc(-c2cc3c(cc2F)OC(F)(F)O3)c(OC)cc1Cl [F335, Methyl 3-chloro-5-methoxy-6-(2,2,6-trifluorobenzo[d][1,3]dioxol-5-yl)picolinate] | 0 to 29 | 0 to 29 | 0 to 29 | 0 to 29 | 0 to 29 | 0 to 29 | 0 to 29 | 0 to 29 | 0 to 29 | 0 to 29 | 30 to 44 | 0 to 29 | 0 to 29 | 0 to 29 | 
COC(=O)c1nc(-c2cc3c(cc2F)OC(F)(F)O3)c(F)cc1OC [F336, Methyl 5-fluoro-3-methoxy-6-(2,2,6-trifluorobenzo[d][1,3]dioxol-5-yl)picolinate] | 0 to 29 | 0 to 29 | 0 to 29 | 0 to 29 | 0 to 29 | 75 to 84 | 0 to 29 | 30 to 44 | 0 to 29 | 60 to 74 | 30 to 44 | 30 to 44 | 0 to 29 | 0 to 29 | 
COc1cc(-c2nc(C(=O)O)c(Cl)cc2F)c(Cl)cc1C(F)(F)F [F337, 3-Chloro-6-(2-chloro-5-methoxy-4-(trifluoromethyl)phenyl)-5-fluoropicolinic acid] | 60 to 74 | 95 to 100 | 85 to 94 | 0 to 29 | 85 to 94 | 75 to 84 | 0 to 29 | 30 to 44 | 0 to 29 | 45 to 59 | 75 to 84 | 30 to 44 | 0 to 29 | 0 to 29 | 
C=Cc1c(C(F)(F)F)ccc(-c2nc(C(=O)OC)c(Cl)cc2F)c1Cl [F338, Methyl 3-chloro-6-(2-chloro-4-(trifluoromethyl)-3-vinylphenyl)-5-fluoropicolinate] | 0 to 29 | 95 to 100 | 45 to 59 | 0 to 29 | 75 to 84 | 85 to 94 | 0 to 29 | 30 to 44 | 0 to 29 | 60 to 74 | 85 to 94 | 95 to 100 | 30 to 44 | 0 to 29 | 
COC(=O)c1nc(-c2ccc(C(F)(F)F)c(C)c2Cl)c(F)cc1Cl [F339, Methyl 3-chloro-6-(2-chloro-3-methyl-4-(trifluoromethyl)phenyl)-5-fluoropicolinate] | 0 to 29 | 95 to 100 | 85 to 94 | 0 to 29 | 0 to 29 | 60 to 74 | 0 to 29 | 0 to 29 | 0 to 29 | 0 to 29 | 95 to 100 | 95 to 100 | 0 to 29 | 60 to 74 | 
COC(=O)c1nc(-c2ccc3ccccc3c2)c(F)cc1Cl [F340, Methyl 3-chloro-5-fluoro-6-(naphthalen-2-yl)picolinate] | 0 to 29 | 0 to 29 | 0 to 29 | 0 to 29 | 0 to 29 | 0 to 29 | 0 to 29 | 0 to 29 | 0 to 29 | 0 to 29 | 0 to 29 | 0 to 29 | 0 to 29 | 0 to 29 | 
COC(=O)c1nc(-c2ccc(C(F)(F)F)c(Br)c2Cl)c(F)cc1Cl [F341, Methyl 6-(3-bromo-2-chloro-4-(trifluoromethyl)phenyl)-3-chloro-5-fluoropicolinate] | 0 to 29 | 95 to 100 | 60 to 74 | 0 to 29 | 85 to 94 | 95 to 100 | 30 to 44 | 45 to 59 | 30 to 44 | 85 to 94 | 85 to 94 | 95 to 100 | 45 to 59 | 0 to 29 | 
CSc1cc(-c2nc(C(=O)O)c(Cl)cc2F)c(Cl)cc1C(F)(F)F [F342, 3-Chloro-6-(2-chloro-5-(methylthio)-4-(trifluoromethyl)phenyl)-5-fluoropicolinic acid] | 0 to 29 | 85 to 94 | 85 to 94 | 0 to 29 | 30 to 44 | 30 to 44 | 0 to 29 | 30 to 44 | 0 to 29 | 0 to 29 | 60 to 74 | 0 to 29 | 0 to 29 | 0 to 29 | 
COC(=O)c1nc(-c2ccc(OS(C)(=O)=O)cc2F)c(F)cc1Cl [F343] | 85 to 94 | 95 to 100 | 85 to 94 | 30 to 44 | 85 to 94 | 95 to 100 | 0 to 29 | 60 to 74 | 0 to 29 | 85 to 94 | 85 to 94 | 95 to 100 | 30 to 44 | 30 to 44 | 95 to 100
